Assay results published in BindingDB's records for doi:10.1021/jm9600095 (Institut De Chimie Des Substances Naturelles Cnrs, 1997).

Experiment: Reverse transcriptase activity was measured in the culture supernatant, concentration that reduces by 50% the HIV produced in the supernatant.

EC50 [nM]	SMILES
100	Cc1cn(C2CC(n3c(=O)c(C)cn(C4CC(N=[N+]=[N-])C(CO)O4)c3=O)C(CO)O2)c(=O)[nH]c1=O (stereo not given) [1-(4-Azido-5-hydroxymethyl-tetrahydro-furan-2-yl)-3-[2-hydroxymethyl-5-(5-methyl-2,4-dioxo-3,4-dihydro-2H-pyrimidin-1-yl)-tetrahydro-furan-3-yl]-5-methyl-1H-pyrimidine-2,4-dione]
> 29000	COc1nc(=O)n(CCn2c(=O)c(C)cn(C3CC(N=[N+]=[N-])C(CO)O3)c2=O)cc1C (stereo not given) [1-(4-Azido-5-hydroxymethyl-tetrahydro-furan-2-yl)-3-[2-(4-methoxy-5-methyl-2-oxo-2H-pyrimidin-1-yl)-ethyl]-5-methyl-1H-pyrimidine-2,4-dione]
14000	CCOC(=O)Cn1c(=O)c(C)cn(C2CC(N=[N+]=[N-])C(CO)O2)c1=O (stereo not given) [[3-(4-Azido-5-hydroxymethyl-tetrahydro-furan-2-yl)-5-methyl-2,6-dioxo-3,6-dihydro-2H-pyrimidin-1-yl]-acetic acid ethyl ester]
1200	Cc1cn(C2CC(N=[N+]=[N-])C(CO)O2)c(=O)n(CCCCCCO)c1=O (stereo not given) [1-(4-Azido-5-hydroxymethyl-tetrahydro-furan-2-yl)-3-(6-hydroxy-hexyl)-5-methyl-1H-pyrimidine-2,4-dione]
140000	COCCOCn1c(=O)c(C)cn(C2CC(N=[N+]=[N-])C(CO)O2)c1=O (stereo not given) [1-(4-Azido-5-hydroxymethyl-tetrahydro-furan-2-yl)-3-(2-methoxy-ethoxymethyl)-5-methyl-1H-pyrimidine-2,4-dione]
500	Cc1cn(C2CC(N=[N+]=[N-])C(CO)O2)c(=O)n(N)c1=O (stereo not given) [3-Amino-1-(4-azido-5-hydroxymethyl-tetrahydro-furan-2-yl)-5-methyl-1H-pyrimidine-2,4-dione]
120	Cc1cn(C2CC(N=[N+]=[N-])C(CO)O2)c(=O)n(CCCO)c1=O (stereo not given) [1-(4-Azido-5-hydroxymethyl-tetrahydro-furan-2-yl)-3-(3-hydroxy-propyl)-5-methyl-1H-pyrimidine-2,4-dione]

Continued, compound first:

SMILES	EC50 [nM]
CCOP(=O)(Cn1c(=O)c(C)cn(C2CC(N=[N+]=[N-])C(CO)O2)c1=O)OCC (stereo not given) [[3-(4-Azido-5-hydroxymethyl-tetrahydro-furan-2-yl)-5-methyl-2,6-dioxo-3,6-dihydro-2H-pyrimidin-1-ylmethyl]-phosphonic acid diethyl ester]	4700
Cc1cn(C2CC(N=[N+]=[N-])C(CO)O2)c(=O)n(CCN=[N+]=[N-])c1=O (stereo not given) [3-(2-Azido-ethyl)-1-(4-azido-5-hydroxymethyl-tetrahydro-furan-2-yl)-5-methyl-1H-pyrimidine-2,4-dione]	1500
Cc1cn(C2CC(N=[N+]=[N-])C(CO)O2)c(=O)n(CC2CC(CO)=NO2)c1=O (stereo not given) [1-(4-Azido-5-hydroxymethyl-tetrahydro-furan-2-yl)-3-(3-hydroxymethyl-4,5-dihydro-isoxazol-5-ylmethyl)-5-methyl-1H-pyrimidine-2,4-dione]	1300
Cc1cn(C2CC(N=[N+]=[N-])C(CO)O2)c(=O)n(CCn2c(=O)c(C)cn(C3CC(N=[N+]=[N-])C(CO)O3)c2=O)c1=O (stereo not given) [1-(4-azido-5-hydroxymethyltetrahydro-2-furanyl)-3-{2-[1-(4-azido-5-hydroxymethyltetrahydro-2-furanyl)-5-methyl-2,4-dioxo-1,2,3,4-tetrahydro-3-pyrimidinyl]ethyl}-5-methyl-1,2,3,4-tetrahydro-2,4-pyrimidinedione]	1400
C=CCn1c(=O)c(C)cn(C2CC(N=[N+]=[N-])C(CO)O2)c1=O (stereo not given) [3-Allyl-1-(4-azido-5-hydroxymethyl-tetrahydro-furan-2-yl)-5-methyl-1H-pyrimidine-2,4-dione]	65000
Cc1cn(C2CC(N=[N+]=[N-])C(CO)O2)c(=O)n(CCO)c1=O (stereo not given) [1-(4-Azido-5-hydroxymethyl-tetrahydro-furan-2-yl)-3-(2-hydroxy-ethyl)-5-methyl-1H-pyrimidine-2,4-dione]	90
Cc1cn(C2CC(N=[N+]=[N-])C(CO)O2)c(=O)n(CC2COC(C)(C)O2)c1=O (stereo not given) [1-(4-Azido-5-hydroxymethyl-tetrahydro-furan-2-yl)-3-(2,2-dimethyl-[1,3]dioxolan-4-ylmethyl)-5-methyl-1H-pyrimidine-2,4-dione]	13000
CCOC(Cn1c(=O)c(C)cn(C2CC(N=[N+]=[N-])C(CO)O2)c1=O)OCC (stereo not given) [1-(4-Azido-5-hydroxymethyl-tetrahydro-furan-2-yl)-3-(2,2-diethoxy-ethyl)-5-methyl-1H-pyrimidine-2,4-dione]	1500
